Results published in PubChem BioAssay (NCI).
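How tested: cells in 96-well plates exposed to compound for 48 hours at five concentrations. TGI: total growth inhibition.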

Columns and labels:
Assay in all cases: inhibition of tumour cell growth, NCI panel, 48 h
UO-31 renal = system: UO-31 renal
MOLT-4 leukemia = system: MOLT-4 leukemia
PC-3 prostate = system: PC-3 prostate
BT-549 breast = system: BT-549 breast
HL-60(TB) leukemia = system: HL-60(TB) leukemia
IGROV1 ovarian = system: IGROV1 ovarian
LOX IMVI melanoma = system: LOX IMVI melanoma
M14 melanoma = system: M14 melanoma
SK-OV-3 ovarian = system: SK-OV-3 ovarian
SK-MEL-28 melanoma = system: SK-MEL-28 melanoma
HOP-92 NSCLC = system: HOP-92 NSCLC
K-562 leukemia = system: K-562 leukemia
MDA-MB-231 breast = system: MDA-MB-231 breast
OVCAR-5 ovarian = system: OVCAR-5 ovarian
OVCAR-3 ovarian = system: OVCAR-3 ovarian
CCRF-CEM leukemia = system: CCRF-CEM leukemia
CAKI-1 renal = system: CAKI-1 renal
HS 578T breast = system: HS 578T breast
DU-145 prostate = system: DU-145 prostate
SR leukemia = system: SR leukemia

SMILES	TGI (UO-31 renal) [µM]	TGI (MOLT-4 leukemia) [µM]	TGI (PC-3 prostate) [µM]	TGI (BT-549 breast) [µM]	TGI (HL-60(TB) leukemia) [µM]	TGI (IGROV1 ovarian) [µM]	TGI (LOX IMVI melanoma) [µM]	TGI (M14 melanoma) [µM]	TGI (SK-OV-3 ovarian) [µM]	TGI (SK-MEL-28 melanoma) [µM]	TGI (HOP-92 NSCLC) [µM]	TGI (K-562 leukemia) [µM]	TGI (MDA-MB-231 breast) [µM]	TGI (OVCAR-5 ovarian) [µM]	TGI (OVCAR-3 ovarian) [µM]	TGI (CCRF-CEM leukemia) [µM]	TGI (CAKI-1 renal) [µM]	TGI (HS 578T breast) [µM]	TGI (DU-145 prostate) [µM]	TGI (SR leukemia) [µM]
Cc1cn([C@@H]2O[C@H](CO[Si](C)(C)C(C)(C)C)[C@]3(O[C@H]3C(=O)NO)[C@H]2O[Si](C)(C)C(C)(C)C)c(=O)[nH]c1=O	3.28	4.62	5.66	3.29	3.57	3.19	3.1	3.56	3.66	3.33	4.17	6.48	4.19	3.33	3.49	2.76	4.31	4.23	3.67	–
CC(CN1NC12CCCC2)N1NC12CCCC2 (stereo not drawn)	> 100	> 100	> 100	> 100	> 100	> 100	> 100	> 100	> 100	> 100	> 100	> 100	> 100	> 100	> 100	> 100	> 100	> 100	> 100	–
COc1cc([C@@H]2c3cc4c(cc3[C@H](OC3OC5COC(c6ccco6)OC5C(O)C3O)C3COC(=O)[C@@H]32)OCO4)cc(OC)c1OC (stereo partly drawn)	> 100	–	> 35.9	85.7	> 100	> 52.7	> 100	> 100	> 100	–	> 100	–	> 100	> 100	> 24.6	–	> 69.9	> 100	> 100	–
CN(C)CCNc1ccc(NCC[N+](C)(C)Cc2ccc([N+](=O)[O-])cc2)c2c1C(=O)c1c(O)ccc(O)c1C2=O	–	8.8	> 100	40.9	> 100	> 100	> 100	–	–	> 100	–	> 100	> 100	–	> 100	> 100	> 100	> 100	> 100	–
COC(=O)C(=O)C(C(=O)C(=O)Nc1ccc(Cl)c(Cl)c1)c1nc2ccc(C(=O)c3ccccc3)cc2[nH]c1=O (stereo not drawn)	> 100	> 100	> 100	> 100	> 100	> 100	> 100	> 100	> 100	> 100	> 100	12.9	> 100	> 100	> 100	> 100	> 100	> 100	–	–
C/C=C1/CC(C(=O)OC)N(C(=O)OCc2ccccc2)C1=S (stereo not drawn)	> 100	> 100	> 100	> 100	–	> 100	–	> 100	> 100	> 100	> 100	> 100	> 100	> 100	> 100	–	> 100	> 100	> 100	–
COCN1C(=O)[C@@H]2CCCN2C(=O)c2cc(OC)c(Cc3ccccc3)cc21	> 100	–	> 100	> 100	–	> 100	> 100	> 100	> 100	> 100	–	–	> 100	> 100	–	–	> 100	> 100	> 100	–
N#CC(C#N)=c1c(=O)c2c3ccccc3cc3cccc1c32	–	> 100	> 100	> 100	> 100	> 100	> 100	> 100	> 100	> 100	> 100	–	> 100	> 100	> 100	> 100	> 100	85	> 100	–
COc1ccc2c(-c3csc(-c4c[nH]c5ccc(Br)cc45)n3)c[nH]c2c1	> 100	> 100	79.3	> 100	–	> 100	> 100	> 100	–	> 100	> 100	> 100	83.1	> 100	> 100	> 100	> 100	> 100	> 100	–
COC(=O)NC(=O)NC(Cc1ccccc1)NC(=O)OCc1ccccc1 (stereo not drawn)	> 100	> 100	> 100	> 100	> 100	> 100	> 100	> 100	57.5	> 100	42.5	> 100	78.1	> 100	> 100	> 100	> 100	–	> 100	> 100
O=C1CSC(c2c[nH]c3ccccc23)N1c1cccc(Cl)c1 (stereo not drawn)	> 100	> 100	–	96.6	> 100	> 100	–	> 100	> 100	> 100	> 100	> 100	80.2	> 100	> 100	> 100	–	> 100	> 100	–
